Experimental data from article PMC10081362 (Research Square, 2023).

Legend:
OXTR [1] = target: T1, OXTR (Homo sapiens, UniProt P30559); experiment: Radioligand competitive binding assay (NIMH PDSP)
T1 construct: host or cells: CHO-K1, stably transfected
T1 sequence (P30559 1-389): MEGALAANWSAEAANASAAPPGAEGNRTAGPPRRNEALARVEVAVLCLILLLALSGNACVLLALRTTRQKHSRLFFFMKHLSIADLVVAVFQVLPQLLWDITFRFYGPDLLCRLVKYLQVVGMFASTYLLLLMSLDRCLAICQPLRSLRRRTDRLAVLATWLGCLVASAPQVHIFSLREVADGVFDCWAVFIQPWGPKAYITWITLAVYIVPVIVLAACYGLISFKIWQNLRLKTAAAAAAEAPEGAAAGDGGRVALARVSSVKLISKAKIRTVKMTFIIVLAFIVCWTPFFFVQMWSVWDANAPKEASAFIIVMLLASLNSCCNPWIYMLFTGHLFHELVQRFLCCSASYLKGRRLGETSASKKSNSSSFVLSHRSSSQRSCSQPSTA
Description: Radioligand binding assays were carried out by the (NIMH) Psychoactive Drug Screening Program[61]. The detailed experimental protocols for the radioligand assay are available on the NIMH PDSP website at http://pdsp.med.unc.edu/UNC-CH%20Protocol%20Book.pdf. […] Binding data were analyzed and plotted using Prism 8 (GraphPad, San Diego, CA).

[2] = test system: OXTR+ neurons in the auditory cortex; assay type: cell-based, mouse
Description: In vitro recordings were performed in acute slices of the auditory cortex prepared from male and female 2–5 month old OXTRcre∷Ai9 mice. Mice were deeply anesthetized with 5% isoflurane and perfused transcardially with ice-cold dissection buffer containing (in mM): 87 NaCl, 75 sucrose, 2.5 KCl, 1.25 NaH2PO4, 0.5 CaCl2, 7 MgCl2, 25 NaHCO3, 1.3 ascorbic acid, and 10 D-glucose, bubbled with 95%/5% O2/CO2 (pH 7.4). Following perfusion and decapitation, brains were removed and placed in the cold buffer solution, and slices (250–300 μm thick) were prepared with a vibratome (Leica P-1000). Slices were placed in warm artificial cerebrospinal fluid (ACSF, in mM: 124 NaCl, 2.5 KCl, 1.5 MgSO4, 1.25 NaH2PO4, 2.5 CaCl2, and 26 NaHCO3) (33–35 °C) for <30 minutes, then cooled to room temperature (22–24 °C) for at least 30 minutes before use. Slices were transferred to the recording chamber and superfused (2.5–3 ml min^−1) with oxygenated ACSF at 33 °C. Whole-cell current-clamp recordings were made from layer 2/3 pyramidal cells with a Multiclamp 200B or 700B amplifier (Molecular Devices, San Diego). Cortical regions and layers were identified using IR video microscopy (Olympus, Japan), and OXTR-positive neurons were identified based on expression of tdTomato, visualized with an Olympus 40 × water- immersion objective with TRITC filter. […]

OXTR [3] = target: T1, OXTR; experiment: Calcium flux fluorescence assay (FLUO-8) in CHO-K1 cells stably expressing OXTR; assay type: cell-based
Description: Stably transfected CHO-K1 cell lines overexpressing OXTR or V1a were obtained from Dr. Bryan Roth via the National Institute of Mental Health (NIMH) Psychoactive Drug Screening Program. The cells were cultured and maintained in Hams F12 medium (Gibco, Waltham, MA) supplemented with 400 μg/ml G418 (Gibco, Waltham, MA), 10% heat-inactivated FBS (Gibco, Waltham, MA), 15 mM HEPES (Gibco, Waltham, MA), 100 units ml^−1 of penicillin, 100 μg ml^−1 of streptomycin. The cells were grown in an atmosphere of 37°C and 8% CO2 and were passaged following trypsinization with Trypsin-LE (Gibco, Waltham, MA). CHO-K1 cells overexpressing OXTR were seeded overnight at 50,000 cells/100 μL/well in a black wall/clear bottom 96-well plate pretreated with poly-lysine (Gibco, Waltham, MA). […] The calcium flux assay was carried out on a FlexStation 3 Microplate Reader (Molecular Devices, San Jose, CA).

[4] = UV-Vis absorption spectra upon 365 nm irradiation; assay type: physicochemical; conditions: 365 nm LED, 3 mW; 20 μM, 1% DMSO/PBS; absorption spectrum unchanged
Description: All measurements were performed in the dark or under red light. Samples were stored at −20 °C. UV-Vis spectroscopy was performed using a Cary 60 UV-Vis Spectrophotometer equipped with a PCB 1500 High-Performance Peltier thermostat (Agilent Technologies, Santa Clara, CA). Samples were measured using ultra-micro cuvettes with a 10 mm light path (BrandTech, Essex, CT). Irradiation was performed using an Optoscan Monochromator equipped with an Optosource High-Intensity Arc Lamp (Cairn Research, Kent, UK) set to 15 nm full width at half maximum and installed with a 75 W UXL-S50A xenon arc lamp (USHIO, Tokyo, JP). The light source was set to 365 nm, and the power output was measured at the sample position using a PM100D compact power and energy meter console and S120VC Si photodiode sensor (Thorlabs, Newton, NJ). A constant 3 mW power output at 365 nm was maintained throughout the experiments. The monochromator was controlled using a custom MATLAB program, and data were analyzed and plotted using Prism 8 (GraphPad, San Diego, CA).
For measuring the UV-visible absorption spectra, we prepared a […] DMSO stock solution of each respective compound, diluted to 20 μM (1% DMSO in PBS). A sample (1 mL) of the solution (20 μM) was transferred to a cuvette and measured by under ambient conditions (24 °C). […]

[5] = test system: mammary tissue from lactating GCaMP6f∷K5CreERT2 mice; experiment: Ex vivo three-dimensional time-lapse imaging of lactating mammary tissue; assay type: cell-based, mouse; conditions: 85 nM oxytocin in bath
Description: Mammary glands were harvested from lactating GCaMP6f;K5CreERT2 mice diced into 3- to 4- mm^3 pieces and loaded with CellTracker Red (1.5 μM, ThermoFisher C34552, ThermoFisher, Waltham, MA) for at least 30 minutes in DMEM/F12 containing 10% FCS. Under these conditions, CellTracker preferentially labels luminal cells. […] Samples were imaged on a Leica TCS SP8 inverted microscope (Leica, Germany) with 20× 0.75NA HC PL APO CS2 objective. For uncaging, a region of interest (ROI) was targeted with a 405 nm laser at 100% laser power for 3s each trial. […] Protocol for image processing and analysis was previously reported in (Stevenson et al., 2020)[48].

In the case of CC[C@H](C)[C@@H]1NC(=O)[C@H](Cc2ccc(OCc3ccccc3[N+](=O)[O-])cc2)NC(=O)[C@@H](N)CSSC[C@@H](C(=O)N2CCC[C@H]2C(=O)N[C@@H](CC(C)C)C(=O)NCC(N)=O)NC(=O)[C@H](CC(N)=O)NC(=O)[C@H](CCC(N)=O)NC1=O [cOT1], the IC50 (OXTR [1]) is reported as 2.01 µM and the “toxic effects on neurons in slices” value [2] is reported as “without apparent toxic effects”.

With CC[C@H](C)[C@@H]1NC(=O)[C@H](Cc2ccc(O)cc2)NC(=O)[C@@H](N)CSSC[C@@H](C(=O)N2CCC[C@H]2C(=O)N[C@@H](CC(C)C)C(=O)NCC(N)=O)NC(=O)[C@H](CC(N)=O)NC(=O)[C@H](CCC(N)=O)NC1=O [oxytocin] the “activation of OXTR+ cells in presence of OXTR antagonist OTA” value (OXTR [3]; 1 μM agonist with 10 μM OTA, after photolysis with 365 nm LED, Fig. 2e) was “failed to activate”, the “fluorescence (calcium flux)” value (OXTR [3]; oxytocin 1 μM, Fig. 2d, normalized to maximal response produced by oxytocin, mean ± SEM, n=5 wells) was 142.4±1.8 and the “duration of stability towards 365 nm irradiation” value [4] was “at least 30 minutes”. For the same molecule, the “calcium and contraction response to whole-tissue wash on” value [5] was “increase in intracellular calcium, followed by cell and alveolar contraction across all cells” and the “peak depolarization of OXTR+ neurons” value ([2]; 1 μM oxytocin wash-on, or cOT1 wash-in and 365 nm light pulsed at 20 Hz, Fig. 4k) was “significant membrane depolarization”.
